{
  "source": "ChEMBL document CHEMBL1123160",
  "about": "“(1-Amino-2-propenyl) phosphonic acid, an inhibitor of alanine racemase and D-alanine:D-alanine ligase” (J Med Chem, 1986)",
  "key": {"Enterococcus faecalis": {"test_system": "Enterococcus faecalis", "test": "(§1) The compound was tested for the inhibition of D-alanine:D-alanine ligase from streptococcus faecalis"}, "[1]": {"test": "as §1", "design": "species or system Enterococcus faecalis"}},
  "data": [
    {"smiles": "C=CC(N)P(=O)(O)O", "note": "(configuration not stated)", "values": [
      {"measurement": "Km", "setting": "Enterococcus faecalis", "result": 7, "unit": "mM"},
      {"measurement": "Ki", "setting": "[1]", "result": 5, "unit": "mM"}
    ]}
  ]
}
